Marks after values point to notes of the source that are not given here.
Key:
[1] = Spectral properties of the fluorinated rhodamines (absorption, emission, quantum yield, lifetime); assay type: physicochemical
Description: Extinction coefficients (of the long wavelength maximum) which are lower than ca. 8×10^4 M^−1 cm^−1 indicate the presence of the closed non-fluorescent form.

[2] = Photoresistance in aqueous solutions irradiated with 488 nm light (3 W/cm^2); assay type: physicochemical; conditions: colored water solutions, several hours, 488 nm line of an Argon laser
Description: The compounds also display an outstanding photostability when irradiated for a prolonged time. […] The initial absorption at the irradiation wavelength was the same for all solutions. […] After two hours of irradiation, compounds 14 and 15 retain more than 50% of the initial emission intensity and compound 14a has about 90% of the initial signal left.
FIG. 2. Photoresistance of selected compounds (14-17, 14a, and 16a in Table 2), and some commercially available fluorophores with the similar spectral properties (Alexa Fluor 488®, Rhodamine Green®, Oregon Green 488®, and Fluorescein) in aqueous solutions irradiated with 488 nm light (3 W/cm^2)

[3] = Fluorescence correlation spectroscopy (FCS) in aqueous solutions; assay type: physicochemical; conditions: aqueous solution, intensity range 0.1-2.0 MW/cm^2
Description: FIG. 10. FCS curves obtained from Rh110-CO2 (left plot) and compound 17 (right plot), at low (0.1 MW/cm^2) and high (2 MW/cm^2) excitation intensity (dots: experimental data; lines: best fits).
In combination with modern highly sensitive detection technologies recently developed, the observation of a single or a few molecules has become readily available. Several techniques based on these measurements [such as the fluorescence fluctuation spectroscopy and fluorescence correlation spectroscopy (FCS)] advantageously reveal molecular properties otherwise hidden by averaging the ensemble. A common requirement for experiments involving a few or single molecules is the use of fluorescent dyes with high photostability especially at high excitation intensities of >100 kW/cm^2. For biological applications the use of water as a solvent is almost imperative. Low solubility in water is often associated with a high bleaching ratio, or lower fluorescence quantum yield in aqueous medium compared with that in organic solvents. […]
The excitation intensity of 115 kW/cm^2 (a value normally used in routinely FCS measurements) and at an excitation intensity of about an order of magnitude higher (2 MW/cm^2) have been used. […] An increase in the fraction of molecules in the triplet state can also be detected. […]

[4] = system: living mammalian cells (PtK2); experiment: Membrane-permeation experiments in living cells, epifluorescence microscope; assay type: cell-based; conditions: 15 minutes
Protocol: FIG. 9. Membrane-permeation experiments of the presented dyes. Living mammalian cells (PtK2) were incubated for 15 minutes with a 50 μg dye/ml solution. The subcellular localization of the dye was imaged in an epifluorescence microscope. A: 46-H—CH2 CF3—H—H (16); B: 42-COOH (15); C: 23; D: 37-Me-Me-H (27); E: 42-H (14)-methylester; F: 33-H—H (18).
The most important prerequisite for fluorophores used in these labeling strategies is that sufficient amounts of it need to pass cellular membrane(s) to reach the target protein. In order to asses the permeability of the cell membrane to the fluorescent dyes described in the presented invention, living mammalian cells (PtK2) previously grown overnight on cover slips, were first subjected to either 500 μg dye/ml or 50 μg dye/ml in growth medium for 15 minutes. (The amount of dye used for labeling of SNAP-fusion proteins is below 5 μg dye/ml.) Then, the cells were washed with growth medium (without dye) for 15 minutes, and imaged using an epifluorescence microscope.

[5] = Ground state depletion (GSDIM) pump-probe measurements in PVA matrix; assay type: physicochemical
Description: In this method, “off” and “on” switching of the fluorescence is achieved by transiently shelving the fluorophores into a meta-stable dark state. Upon the return of only a few isolated single molecules to the fluorescent singlet state, positions of these single light emitting spots can be imaged on a camera and localized with high precision. Upon repeating this procedure and acquiring many pictures, a super-resolution image can be reconstructed from the localized positions. A prerequisite of this method is that >70% of the ensemble of the applied fluorescent dyes can be shelved into a dark state at a time (to ensure the detection of isolated fluorescent spots at a time in a densely labeled sample) and that the fluorophores are bright enough, i.e., that they emit enough photons while being in the singlet on-state (to ensure high precision of localization).
Switching off of the laser leads to a recovery of the fluorescence ensemble within a characteristic recovery time of 150-450 ms (Table 5), indicating the shelving into a metastable dark state. The measurements were performed in a pump-probe mode, i.e., the residual level of fluorescence was probed with I<100 W/cm^2 for 0.5 ms after strong irradiation for 10 ms with the given laser intensity in Table 5.
Furthermore, recovery of the fluorescence can be accelerated by addition of UV light, which leads to an optically-induced depopulation of the dark states. Already 2-3 kW/cm^2 of 375 nm light recovers the fluorescence within an irradiation period of 0.5 ms. […] The accelerated recovery is important for samples with low density of labels, where the addition of UV light and thus acceleration of the return from a dark state helps to accelerate image acquisition. Photostabilities of the studied fluorescent dyes under the GSDIM conditions are different: 15-50 pump-probe cycles with a pump intensity of 14-110 kW/cm^2 bleach 30-95% of the whole ensemble.

Compound: O=C(O)c1ccc2c(c1)C(=O)OC21c2ccc(NCC(F)(F)F)c(S(=O)(=O)O)c2Oc2c1ccc(NCC(F)(F)F)c2S(=O)(=O)O [Compound 17, 5′-Carboxy-4,5-disulfo-N,N′-bis(2,2,2-trifluoroethyl)-rhodamine]
- ABSORPTION λMAX ([1]; aqueous buffer at pH 7): 501 nm
- EMISSION λMAX ([1]; aqueous buffer at pH 7): 524^a, 524^b nm
- ΦFL ([1]; aqueous buffer at pH 7): 0.96
- τFL ([1]; aqueous buffer at pH 7): 3.9 ns
- ABSORPTION ε ([1]; methanol): 86000 M⁻¹ cm⁻¹
- ABSORPTION λMAX ([1]; methanol): 511 nm
- EMISSION λMAX ([1]; methanol): 524^a, 524^b nm
- change in emission on irradiation [2]: without any significant changes in their emission
- change of diffusion time with excitation intensity (bleaching) [3]: no significant change in the diffusion time
- Structures stained in living cells ([4]; 50 μg dye/ml): Dim cytoplasmatic stain with dots
- Structures stained in living cells ([4]; 500 μg dye/ml): Bright background staining visible.
- λem ([5]; PVA matrix table): 524 nm
- λex ([5]; PVA matrix table): 501 nm
- Γfl, remaining fluorescence after 5 measurement cycles ([5]; PVA matrix, at one spot with the given power density): 40%
- Rfl, t=0, residual fluorescence after the pump-pulse ([5]; PVA matrix, pump-pulse power density per dye 14-110 kW/cm^2): 25%
